Laboratory results as given in EPA's ToxRefDB 2.

Experiments:
[1] = system: primate; settings: Sub-acute repeat dose toxicity, Oral, Gavage/Intubation, dose end: 30 day, group: systemic
[2] = system: rat; settings: Sub-acute repeat dose toxicity; sprague dawley; Oral; Gavage/Intubation; dose end: 14 day; group: systemic; systemic / hematology / erythrocyte (rbc) count differential / erythrocyte (rbc) + systemic / hematology / fibrinogen / fibrinogen + …
[3] = system: primate; settings: Sub-acute repeat dose toxicity; Oral; Gavage/Intubation; dose end: 5 day; group: systemic; systemic / clinical chemistry / bilirubin / total bilirubin + systemic / in life observation / clinical signs / abnormal feces + systemic / …
[4] = system: rat; settings: Sub-acute repeat dose toxicity; sprague dawley; Oral; Gavage/Intubation; dose end: 28 day; group: systemic; systemic / in life observation / body weight / body weight + systemic / in life observation / clinical signs / feces, discoloration + …
[5] = system: primate; settings: Sub-acute repeat dose toxicity; Oral; Gavage/Intubation; dose end: 9 day; group: systemic; systemic / clinical chemistry / [other] / [other] + systemic / clinical chemistry / alanine aminotransferase (alt/sgpt) / alanine …
[6] = system: dog; settings: Subchronic oral toxicity in nonrodent, beagle, Feed, dose end: 90 day
[7] = system: rat; settings: Prenatal developmental toxicity study, wistar, Oral, Gavage/Intubation, dose end: 16 GD
[8] = system: rat; settings: Multigenerational reproductive toxicity study, sprague dawley, Oral, Feed, dose end: 2 generation
[9] = system: dog; settings: Chronic toxicity; beagle; Oral; Feed; dose end: 104 week; group: systemic; systemic / hematology / [other] / [other] + systemic / hematology / eosinophils / eosinophils + systemic / hematology / erythroblast / …
[10] = system: dog; settings: Sub-acute repeat dose toxicity; beagle; Oral; Capsule; dose end: 1 month; group: systemic; systemic / in life observation / clinical signs / defecation (diarrhea) + systemic / in life observation / clinical signs / emesis + …
[11] = system: rat; settings: Sub-acute repeat dose toxicity, sprague dawley, Oral, Gavage/Intubation, dose end: 28 day, group: systemic
[12] = systemic / in life observation / mortality / mortality + systemic / clinical chemistry / [other] / [other] + systemic / hematology / …
[13] = systemic / pathology gross / full gross necropsy / hemorrhage + systemic / pathology gross / full gross necropsy / lesion(s) (nos)
[14] = group: cholinesterase, cholinesterase / cholinesterase / cholinesterase / plasma cholinesterase (che) + cholinesterase / cholinesterase / cholinesterase / …
[15] = group: systemic, systemic / hematology / [other] / [other] + systemic / hematology / erythroblast / erythroblast + systemic / hematology / lymphocyte / …
[16] = group: developmental, developmental / developmental malformation / bone / [other] + developmental / developmental malformation / bone / bipartite ossification + …
[17] = group: maternal, systemic / in life observation / body weight / body weight gain + systemic / in life observation / food consumption / food consumption
[18] = group: offspring, systemic / in life observation / body weight / offspring (pup) weight
[19] = group: parental, systemic / in life observation / body weight / body weight gain + systemic / in life observation / food consumption / food consumption + …
[20] = systemic / clinical chemistry / glucose / glucose + systemic / clinical chemistry / cholesterol / cholesterol
[21] = systemic / clinical chemistry / glucose / glucose + systemic / hematology / platelet / platelet + systemic / pathology microscopic / liver…

NC(=O)N1C(=O)C(C(=O)c2ccc(F)s2)c2cc(F)c(Cl)cc21 (stereo unspecified)
LOAEL [1, 12]: > 10 mg/kg/day
NOAEL [1, 12]: ≥ 10 mg/kg/day
LEL [1, 13]: 1 mg/kg/day
NEL [1, 13]: < 1 mg/kg/day
LEL [2]: 30 mg/kg/day
LOAEL [2]: > 30 mg/kg/day
NEL [2]: 10 mg/kg/day
NOAEL [2]: ≥ 30 mg/kg/day
LEL [3]: 30 mg/kg/day
LOAEL [3]: > 30 mg/kg/day
NEL [3]: < 30 mg/kg/day
NOAEL [3]: ≥ 30 mg/kg/day
LEL [4]: 3 mg/kg/day
LOAEL [4]: > 20 mg/kg/day
NEL [4]: < 3 mg/kg/day
NOAEL [4]: ≥ 20 mg/kg/day
LEL [5]: 2 mg/kg/day
LOAEL [5]: > 20 mg/kg/day
NEL [5]: < 2 mg/kg/day
NOAEL [5]: ≥ 20 mg/kg/day

Cc1nc(N(C)C)nc(OC(=O)N(C)C)c1C [Pirimicarb]
LEL [6, 14]: 10 mg/kg/day
LOAEL [6, 14]: 10 mg/kg/day
NEL [6, 14]: 4 mg/kg/day
NOAEL [6, 14]: 4 mg/kg/day
LEL [6, 15]: 4 mg/kg/day
LOAEL [6, 15]: 4 mg/kg/day
NEL [6, 15]: 1.8 mg/kg/day
NOAEL [6, 15]: 1.8 mg/kg/day
LEL [7, 16]: 75 mg/kg/day
LOAEL [7, 16]: 75 mg/kg/day
NEL [7, 16]: 25 mg/kg/day
NOAEL [7, 16]: 25 mg/kg/day
LEL [7, 17]: 75 mg/kg/day
LOAEL [7, 17]: 75 mg/kg/day
NEL [7, 17]: 25 mg/kg/day
NOAEL [7, 17]: 25 mg/kg/day
LEL [8, 18]: 90.1 mg/kg/day
LOAEL [8, 18]: 90.1 mg/kg/day
NEL [8, 18]: 23.2 mg/kg/day
NOAEL [8, 18]: 23.2 mg/kg/day
LEL [8, 19]: 81.8 mg/kg/day
LOAEL [8, 19]: 81.8 mg/kg/day
NEL [8, 19]: 21.7 mg/kg/day
NOAEL [8, 19]: 21.7 mg/kg/day
LEL [9]: 4 mg/kg/day
LOAEL [9]: 4 mg/kg/day
NEL [9]: 1.8 mg/kg/day
NOAEL [9]: 1.8 mg/kg/day

COc1cc(C(C)C)c2c(c1)S(=O)(=O)N(COc1cc(=O)n3cccc(OCCN4CCCCC4)c3n1)C2=O
LEL [10]: 10 mg/kg/day
LOAEL [10]: > 100 mg/kg/day
NEL [10]: < 10 mg/kg/day
NOAEL [10]: ≥ 100 mg/kg/day
LEL [11, 20]: 30 mg/kg/day
NEL [11, 20]: < 30 mg/kg/day
LOAEL [11, 21]: 100 mg/kg/day
NOAEL [11, 21]: 30 mg/kg/day
